Measurements from patent publication US11661420B2 (NANJING HEPO PHARMACEUTICAL CO., LTD, priority 2019, dated 2023).

Legend:
HBV DNA = experiment: Cryopreserved PHH assay, real-time qPCR of HBV DNA in culture supernatant; type: cell-based, type D HBV in human primary hepatocytes (PHH); settings: Hepatitis B virus, 240 h; PHH infected with type D HBV, supernatant day 10, qPCR
Protocol: (§1) The inhibitory effect of the compounds on HBV was evaluated by real-time quantitative qPCR assay (real time-qPCR) to detect the HBV DNA content in human primary hepatocytes (PHH) culture supernatant, and ELISA to detect the hepatitis B surface antigen and e antigen content, the EC50 value of the compounds was used as an indicator; meanwhile, the cell viability was detected by CellTiter-Glo to evaluate the toxicity of the compounds to cells.
(§2) 3.1. On day 0, PHH (1.32×10^5 cells/well) was seeded into a 48-well plate and incubated overnight at 37° C., 5% CO2.
(§3) 3.2. On the first day, PHH was infected with type D HBV (concentrated from HepDE19 cell culture supernatant).
(§4) 3.3 On the second day, the test compound was diluted to 7 concentrations with 5-fold serial dilution. Reference compound Peg-IFN-α 2a, 7 concentrations with 3-fold serial dilution. Compounds with different concentrations were added to the culture wells, and the wells were double-duplicated wells. The final concentration of DMSO in the culture medium was 2%.
(§5) 3.4 On the 4th, 6th, and 8th day, the culture medium was replaced by a fresh culture medium containing the compound.
(§6) 3.5 After collecting the culture supernatant from the culture well on the 10th day, the cell viability was tested with CellTiter-Glo. A portion of the culture supernatant was collected for ELISA determination to detect the content of hepatitis B virus surface antigen and e antigen; a portion of the sample was collected for extract DNA using a high-throughput DNA purification kit, referring to the product instructions for the specific steps.
3.6 Quantitative PCR to detect the content of HBV DNA
The qPCR reaction mixture, sample and standard were added to the 384 well reaction plate. PCR reactions: 95° C., 10 min; 95° C., 15 sec, 60° C., 1 min, 40 cycles.
(§7) Calculation of the inhibition percentage of HBV DNA, HBV surface antigen and e antigen. % Inh.=(1−value of the sample/value of DMSO control)×100.

HBV e antigen (HBeAg) = experiment: Cryopreserved PHH assay, ELISA of hepatitis B e antigen in culture supernatant; type: cell-based, type D HBV in human primary hepatocytes (PHH); settings: Hepatitis B virus, 240 h, read-out: HBeAg EC50
Protocol: as §1, §2, §3, §4, §5, §6
(§8) 3.7 ELISA determination of hepatitis B virus surface antigen and e antigen
(§9) The specific steps can be referred to the product manual, the steps are briefly described as follows: 50 μL of sample and standard was added to the reaction plate respectively, 50 μL of enzyme conjugate was added to each well, the mixture was shaken and mixed well, then kept in a warm bath at 37° C. for 60 minutes, the plate was washed with washing solution for 5 times, 50 μL of the luminescent substrate was added to each well, the mixture was mixed well, and the reaction was carried out in the dark at room temperature for 10 minutes, and finally the chemiluminescence intensity was detected with the instrument.
as §7

[1] = system: HBV surface antigen (HBsAg); experiment: Cryopreserved PHH assay, ELISA of hepatitis B surface antigen in culture supernatant; type: cell-based, type D HBV in human primary hepatocytes (PHH); settings: Hepatitis B virus, 240 h, read-out: HBsAg EC50
Protocol: as §1, §2, §3, §4, §5, §6, §8, §9, §7

[2] = Cryopreserved PHH assay, cell viability by CellTiter-Glo; type: cell-based; settings: human, cryopreserved primary human hepatocytes (PHH), day 10, CellTiter-Glo
Protocol: as §1, §2, §4, §5, §6
Calculation of the percentage of cell viability: % viability=the luminescence value of the sample/the luminescence value of the DMSO control×100.

SMILES	EC50 (HBV DNA)	EC50 (HBV e antigen (HBeAg))	EC50 [1]	CC50 at 8 days [2]
O=C(O)C1CCN(c2ccc3c(=O)c4cccc(Cl)c4oc3c2)C1 (stereo not shown) [A, reference compound]	576 nM	6880 nM	9930 nM	> 50000 nM
O=C(O)c1ccc(-c2csc(C3=NCc4cccc(Cl)c4N3)n2)cc1 [Compound I-1, 4-(2-(8-chloro-1,4-dihydroquinazolin-2-yl)thiazol-4-yl)benzoic acid]	22200 nM	18100 nM	38100 nM	> 50000 nM
CC1N=C(c2nc(-c3ccc(C(=O)O)cc3)cs2)Nc2c(Cl)cccc21 (stereo not shown) [Compound I-2, 4-(2-(8-chloro-4-methyl-1,4-dihydroquinazolin-2-yl)thiazol-4-yl)benzoic acid]	6.5 nM	5.4 nM	13.5 nM	> 50000 nM
CC1(C)N=C(c2nc(-c3ccc(C(=O)O)cc3)cs2)Nc2c(Cl)cccc21 [Compound I-4, 4-(2-(8-chloro-4,4-dimethyl-1,4-dihydroquinazolin-2-yl)thiazol-4-yl)benzoic acid]	4.12 nM	3.2 nM	10.2 nM	> 50000 nM
O=C(O)c1ccc(-c2csc(C3=NC4(CC4)c4cccc(Cl)c4N3)n2)cc1 [Compound I-5, 4-(2-(8′-chloro-1′H-spiro[cyclopropyl-1,4′-quinazolin]-2′-yl)thiazol-4-yl)benzoic acid]	11 nM	9 nM	105 nM	> 50000 nM
O=C(O)c1ccc(-c2csc(C3=NC4(COC4)c4cccc(Cl)c4N3)n2)cc1 [Compound I-11, 4-(2-(8′-chloro-1′H-spiro[oxetanyl-3,4′-quinazolin]-2′-yl)thiazol-4-yl)benzoic acid]	21 nM	17 nM	163 nM	> 50000 nM
O=C(O)c1ccc(-c2csc(-c3cc(=O)c4cccc(Cl)c4[nH]3)n2)cc1 [Compound I-13, 4-(2-(8-chloro-4-oxo-1,4-dihydroquinolin-2-yl)thiazol-4-yl)benzoic acid]	> 5000 nM	> 5000 nM	> 50000 nM	> 50000 nM
O=C(O)c1ccc(-c2ccc(-c3cc(=O)c4cccc(Cl)c4o3)cc2)cc1 [Compound I-14, 4′-(8-chloro-4-oxo-4H-benzopyran-2-yl)-[1.1′-biphenyl)-4-carboxylic acid]	> 20000 nM	> 20000 nM	> 50000 nM	> 50000 nM
O=C(O)c1ccc(-c2csc(-c3cc(=O)c4cccc(Cl)c4o3)n2)cc1 [Compound I-19, 4-(2-(8-chloro-4-oxo-4H-benzopyran-2-yl)thiazol-4-yl)benzoic acid]	28400 nM	~15000 nM	39600 nM	> 50000 nM
CC1(C)N=C(c2nc(-c3ccc(C(=O)O)cc3)cs2)Nc2ccccc21 [Compound I-20, 4-(2-(4,4-dimethyl-1,4-dihydroquinazolin-2-yl)thiazol-4-yl)benzoic acid]	5 nM	4 nM	32 nM	> 50000 nM
CC1(C)N=C(c2nc(-c3ccc(C(=O)O)cc3)cs2)Nc2c(F)cccc21 [Compound I-21, 4-(2-(8-fluoro-4,4-dimethyl-1,4-dihydroquinazolin-2-yl)thiazol-4-yl)benzoic acid]	6.9 nM	4.8 nM	16.5 nM	> 50000 nM
CC1(C)N=C(c2nc(-c3ccc(C(=O)O)cc3)cs2)Nc2c(Br)cccc21 [Compound I-22, 4-(2-(8-bromo-4,4-dimethyl-1,4-dihydroquinazolin-2-yl)thiazol-4-yl)benzoic acid]	10 nM	3.8 nM	> 50000 nM	> 50000 nM
CC1(C)N=C(c2nc(-c3ccc(C(=O)O)cc3)cs2)Nc2c(C(F)(F)F)cccc21 [Compound I-23, 4-(2-(4,4-dimethyl-8-trifluoromethyl-1,4-dihydroquinazolin-2-yl)thiazol-4-yl)benzoic acid]	8.3 nM	2 nM	> 50000 nM	> 50000 nM
CC1(C)N=C(c2nc(-c3ccc(C(=O)O)cc3)cs2)Nc2cc(Cl)ccc21 [Compound I-25, 4-(2-(7-chloro-4,4-dimethyl-1,4-dihydroquinazolin-2-yl)thiazol-4-yl)benzoic acid]	98.8 nM	63.2 nM	440 nM	> 50000 nM
CC1(C)N=C(c2nc(-c3ccc(C(=O)O)cc3)cs2)Nc2ccc(Cl)cc21 [Compound I-27, 4-(2-(6-chloro-4,4-dimethyl-1,4-dihydroquinazolin-2-yl)thiazol-4-yl)benzoic acid]	16.7 nM	21.1 nM	> 50000 nM	> 50000 nM
CC1(C)N=C(c2nc(-c3ccc(C(=O)O)cn3)cs2)Nc2ccccc21 [Compound I-34]	171 nM	66.4 nM	594 nM	> 50000 nM
CC1(C)N=C(c2nc(-c3ccc(C(=O)O)nc3)cs2)Nc2ccccc21 [Compound I-35, 5-(2-(4,4-dimethyl-1,4-dihydroquinazolin-2-yl)thiazol-4-yl)pyridin-2-carboxylic acid]	1130 nM	339 nM	1030 nM	> 50000 nM
CC1(C)N=C(c2nc(-c3cccc(C(=O)O)c3)cs2)Nc2c(Cl)cccc21 [Compound I-36, 3-(2-(8-chloro-4,4-dimethyl-1,4-dihydroquinazolin-2-yl)thiazol-4-yl)benzoic acid]	9960 nM	> 50000 nM	> 50000 nM	> 50000 nM
CC1(C)N=C(c2nc(-c3ccc(C(=O)O)cc3F)cs2)Nc2ccccc21 [Compound I-38, 4-(2-(4,4-dimethyl-1,4-dihydroquinazolin-2-yl)thiazol-4-yl)-3-flurobenzoic acid]	16 nM	12 nM	92 nM	> 50000 nM
COc1cc(-c2csc(C3=NC(C)(C)c4ccccc4N3)n2)ccc1C(=O)O [Compound I-40, 4-(2-(4,4-dimethyl-1,4-dihydroquinazolin-2-yl)thiazol-4-yl)-2-flurobenzoic acid]	31 nM	34 nM	302 nM	> 50000 nM
CC1N=C(c2ccc(-c3ccc(C(=O)O)cc3)cc2)Nc2c(Cl)cccc21 (stereo not shown) [Compound I-43, 4′-(8-chloro-4-methyl-1,4-dihydroquinazolin-2-yl)-[1.1′-biphenyl]-4-carboxylic acid]	> 50000 nM	40800 nM	> 50000 nM	> 50000 nM
CC1(C)N=C(c2ccc(-c3ccc(C(=O)O)cc3)cc2F)Nc2c(Cl)cccc21 [Compound I-46, 4′-(8-chloro-4,4-dimethyl-1,4-dihydroquinazolin-2-yl)-3′-fluoro-[1.1′-biphenyl]-4-carboxylic acid]	48800 nM	6320 nM	> 50000 nM	> 50000 nM
CC1(C)N=C(c2ccc(-c3ccc(C(=O)O)cc3)cn2)Nc2c(Cl)cccc21 [Compound I-48, 4-(6-(8-chloro-4,4-dimethyl-1,4-dihydroquinazolin-2-yl)pyridin-3-yl)benzoic acid]	4020 nM	426 nM	> 50000 nM	> 50000 nM
CC1(C)N=C(c2ncc(-c3ccc(C(=O)O)cc3)cn2)Nc2c(Cl)cccc21 [Compound I-49, 4-(2-(8-chloro-4,4-dimethyl-1,4-dihydroquinazolin-2-yl)pyrimidin-5-yl)benzoic acid]	10900 nM	41300 nM	> 50000 nM	> 50000 nM
CC1(C)N=C(c2cc(-c3ccc(C(=O)O)cc3)co2)Nc2c(Cl)cccc21 [Compound I-50, 4-(5-(8-chloro-4,4-dimethyl-1,4-dihydroquinazolin-2-yl)furan-3-yl)benzoic acid]	77.5 nM	53.7 nM	102 nM	> 50000 nM
